Several values for one entry are separate records, joined by “and”; a condition that tells them apart may be missing. Identical values can stand only once. Like-named read-outs stand apart in the source and are kept apart here. Peptide text beside a SMILES is read from it.
How the values were obtained:
[1] = system: hepatocytes; test: Tests in vitro: vitality of isolated rat hepatocytes; format: cell-based; details: for viability at 250 µM / viability at 500 µM / viability at 1000 µM / viability at 2500 µM / viability at 5000 µM: Rattus norvegicus, Hepatocyte, read-out: Cells vitality; for viability at 1000 µM: DEM + 1.0 mM; for viability at 5000 µM: DEM + 5.0 mM
Method: The experimental model envisages the isolation of hepatic parenchymal cells of rats following perfusion, with collagenase, of the isolated organ. Prior to each test, hepatocytes vitality was quantified by Tripan Blue […]. Only the cells with a vitality greater than 90% were utilized. Hepatocytes were resuspended, at a concentration of 10^6 cells/ml, in a saline medium (Krebs Heinseleit) at ph 7.4, and then placed into rotating flasks in the presence of O2 (95%) and CO2 (5%), at 37° C. Cells keep vital for 5-6 hours at least.
[…] The cells were then washed for 30 min. and incubated with various concentrations of the test substance (from 0.25 to 5 mM).
By this experimental model it is possible to test the effect of the substance by evaluating the hepatic functionality determined by measurements of the vitality (Tables Nos. 3, 4, and 5) and of glutathione content (Tables 6, 7, and 8).
In the Tables 3-8 herein below reported, the controls are represented by normal hepatocytes, not treated either with DEM or with compound (I).

[2] = system: serum GPT; test: Test No. 4: dichloropropane (DCP) intoxication in vivo, serum GPT; set-up: species or system rat
Method: (§1) A test was carried out in vivo on four groups of four rats each, using, as a toxic substance, dichloropropane (DCP), the main constituent of several solvents. DCP is noxious both by ingestion and inhalation and has a notable toxicity to the liver, mediated by an almost total depletion of thiol groups, including those of GSH.
(§2) The experimental model involves the study of the effect of DCP toxicity in the rat, in respect of glutathione (GSH) concentration in the main target tissue: the liver.
(§3) Tests were carried out on four groups of rats. The first group of animals was administered 2 ml DCP/kg dissolved in oil (40% v/v) per os. Twenty-four hours after DCP administration, blood samples were taken for SGPT measurement, while the animals were sacrificed; small portions of liver were then excised and immediately deproteinized by homogenization in 6% PCA. The chromatographic analyses of GSH and GSSG (oxidized glutathione) were performed.
(§4) The second group of animals was treated with the test drug (600 mg/kg i.p.) two hours after DCP administration. The third and fourth groups were treated with N-acetyl-cysteine (NAC) (250 mg/kg i.p.) and, respectively, with glutathione (Tationil^R) (600 mg/kg i.p.).

[3] = system: DCP toxicity in the rat; test: Test No. 4: dichloropropane (DCP) intoxication in vivo, death rate and signs; details: DCP-treated rats
Method: as §1, §2, §3, §4

[4] = system: Lewis lung carcinoma cells; test: Transplantable neoplasms: metastases development in BALB/c mice; format: in vivo
Method: Male adult BALB/c mice weighing 20 g were stabled under standard conditions (24°±1° C., 12 h light/dark cycle, free access to food and water). Handlings were made in such a way as to avoid stressful stimuli.
All animals, subdivided into groups of 6, were treated 4 weeks with a PSC dose (600 mg/kg). […] Treatment was continued two weeks after tumour inoculation. The mice were sacrificed and the tumoral mass growth and the development of metastases, if any, were evaluated.

[5] = system: malonic aldehyde (MDA) in brain; test: PSC effect on lipid peroxidation (MDA) in rat SNC; format: in vivo, male Wistar rats; details: old animals, 100 mg/kg i.p.
Excerpt: Since lipid peroxidation, i.e. the oxidation of an α-methylenic bridge of a polyunsaturated fatty acid, is a process that, through the formation of intermediates (such as lipid peroxides and hydroperoxides), provide carbonyl fragments, including malonic aldehyde (MDA), efforts were made by the Applicant to check whether administration of the test molecule might reduce MDA levels in the SNC, which are closely related to the presence of free radicals and, consequently, to a potential neuronal damage, which is strongly responsible for the induction of age-related alterations.
The test was carried out on male Wistar rats stabled in groups of 5/cage, at 21° C. and constant light/dark cycle, fed with standard laboratory food.
[…] was assayed both on young and old rats, prior to and after treatment with PSC (100 mg/kg). A few hours after treatment, all animals were sacrificed and their brain readily excised. MDA was determined by a micromethod modified according to Slater and Sawyer (Slater T. F. and Sawyer B. C., 1971, J. Biochem., Tokio 8: 2180). The tissue was maintained 10 min. at 0° C. in 0.05M Tris-HCl buffer, pH 7.4, and homogenized. […] After cooling, the absorbance at 532 nm was recorded by a spectrophotometer. […] Proteins were measured by Smith's method using, as a reagent, bicinchoninic acid (BCA) (Smith et al., 1985, Anal. Biochem., 27, 502).

[6] = Behaviour and death rate of the test groups under PSC treatment; details: in vivo
[7] = 600 mg/kg i.p., 30 days' treatment, 15 days after inoculation

CC(=O)SC[C@H](NC(=O)[C@@H]1CCC(=O)N1)C(=O)O [PSC, 2-(S)-(2-pyrrolidone-5-(S)-carbonyl amido)-3-acetylmercapto propionic acid] (HELM PEPTIDE1{[Glp].C}|PEPTIDE2{[ac]}$PEPTIDE1,PEPTIDE2,2:R3-1:R2$$$V2.0)
viability at 250 µM ([1]; 0 h, DEM + 0.25 mM, 0 time (Table 4)): 95%
viability at 500 µM ([1]; 0 h, DEM + 0.50 mM, 0 time (Table 4)): 95%
viability at 1000 µM ([1]; 0 h, 0 time (Table 5)): 96%
viability at 2500 µM ([1]; 0 h, DEM + 2.5 mM, 0 time (Table 5)): 96%
viability at 5000 µM ([1]; 0 h, 0 time (Table 5)): 96%
viability at 250 µM ([1]; 0 h, no DEM, 0.25 mM, 0 time): 100%
viability at 500 µM ([1]; 0 h, no DEM, 0.50 mM, 0 time): 100%
viability at 2500 µM ([1]; 0 h, no DEM, 2.5 mM, 0 time): 100%
viability at 250 µM ([1]; 0.5 h, DEM + 0.25 mM, 30 min (Table 4)): 90%
viability at 500 µM ([1]; 0.5 h, DEM + 0.50 mM, 30 min (Table 4)): 88%
viability at 1000 µM ([1]; 0.5 h, 30 min (Table 5)): 92%
viability at 2500 µM ([1]; 0.5 h, DEM + 2.5 mM, 30 min (Table 5)): 89%
viability at 5000 µM ([1]; 0.5 h, 30 min (Table 5)): 88%
viability at 250 µM ([1]; 0.5 h, no DEM, 0.25 mM, 30 min): 101%
viability at 500 µM ([1]; 0.5 h, no DEM, 0.50 mM, 30 min): 101%
viability at 2500 µM ([1]; 0.5 h, no DEM, 2.5 mM, 30 min): 94%
viability at 250 µM ([1]; 1 h, DEM + 0.25 mM, 1 hr (Table 4)): 87%
viability at 500 µM ([1]; 1 h, DEM + 0.50 mM, 1 hr (Table 4)): 85%
viability at 1000 µM ([1]; 1 h, 1 hr (Table 5)): 90%
viability at 2500 µM ([1]; 1 h, DEM + 2.5 mM, 1 hr (Table 5)): 84%
viability at 5000 µM ([1]; 1 h, 1 hr (Table 5)): 84%
viability at 250 µM ([1]; 1 h, no DEM, 0.25 mM, 1 hr): 98%
viability at 500 µM ([1]; 1 h, no DEM, 0.50 mM, 1 hr): 100%
viability at 2500 µM ([1]; 1 h, no DEM, 2.5 mM, 1 hr): 95%
viability at 250 µM ([1]; 2 h, DEM + 0.25 mM, 2 hrs (Table 4)): 86%
viability at 500 µM ([1]; 2 h, DEM + 0.50 mM, 2 hrs (Table 4)): 84%
viability at 1000 µM ([1]; 2 h, 2 hrs (Table 5)): 89%
viability at 2500 µM ([1]; 2 h, DEM + 2.5 mM, 2 hrs (Table 5)): 83.5%
viability at 5000 µM ([1]; 2 h, 2 hrs (Table 5)): 82%
viability at 250 µM ([1]; 2 h, no DEM, 0.25 mM, 2 hrs): 100%
viability at 500 µM ([1]; 2 h, no DEM, 0.50 mM, 2 hrs): 101%
viability at 2500 µM ([1]; 2 h, no DEM, 2.5 mM, 2 hrs): 95%
viability at 250 µM ([1]; 4 h, DEM + 0.25 mM, 4 hrs (Table 4)): 87%
viability at 500 µM ([1]; 4 h, DEM + 0.50 mM, 4 hrs (Table 4)): 85%
viability at 1000 µM ([1]; 4 h, 4 hrs (Table 5)): 88%
viability at 2500 µM ([1]; 4 h, DEM + 2.5 mM, 4 hrs (Table 5)): 82%
viability at 5000 µM ([1]; 4 h, 4 hrs (Table 5)): 80%
viability at 250 µM ([1]; 4 h, no DEM, 0.25 mM, 4 hrs): 116%
viability at 500 µM ([1]; 4 h, no DEM, 0.50 mM, 4 hrs): 114%
viability at 2500 µM ([1]; 4 h, no DEM, 2.5 mM, 4 hrs): 104%
cellular suffering (in words) ([1]; hepatocytes treated with DEM then test substance): a cellular suffering (cellular dilatation without appearance of vesicles) was at first detected, which disappeared after few tens of minutes
cellular toxicity (in words) ([1]; in vitro, up to 5 mM): does not cause cellular toxicity and, at least in vitro, is very well tolerated
GPT, average values ([2]; DCP + 600 mg/kg i.p.): 22.0 U/1
GPT, individual animals ([2]; DCP + 600 mg/kg i.p., animals 1-4, listed as (I) (R = CH3), 600 mg/kg): 24.4 U/1 and 26.4 U/1 and 17.4 U/1 and 20.1 U/1
GPT ([2]; DCP + (I)(R=CH3)): 22.0 U/l
Serum GPT (in words) ([2]; DCP-treated rats): maintained within standard limits
behavioural (torpor) and postural (ataxia) disorders (in words) [3]: did not show any notable modification of said parameters
death (in words) [3]: no death occurred
macroscopic examination of liver (in words) [3]: showed liver parenchyma within standard limits
coagulative disorders (in words) ([3]; merely qualitative examination): absent
Mice with metastases, % [4, 7]: 33%
Mice with metastases/group [4, 7]: 2/6
metastatic process (in words) ([4]; mouse, in vivo): slows down the metastatic process
MDA [5]: 0.723 +/- 0.32 nmols/mg proteins
behaviour and death rate of the test groups (in words) [6]: did not significantly affect the behaviour and death rate of the various test groups
death in tested groups (in words) [6]: no death occurred in all tested groups
